Among the data in patent publication US10377743B2, “Inhibitors of RAS and methods of use thereof” (Araxes Pharma LLC, priority 2016, dated 2019) are Binding % values, retold here.

Molecules are shown by their SMILES.

The target in one assay is T1, KRAS G12C 1-169, his-tagged protein, GDP-loaded (Homo sapiens, UniProt P01116, G12C).
T1 construct: KRAS G12C 1-169, his-tagged protein, GDP-loaded
Nature of the assay: Biochemical assay: covalent binding (modification %) to KRAS G12C by mass spectrometry. The following applies: 2 hour incubation period, 8 μM compound (compounds 21-92). The method, then: Test compounds were prepared as 10 mM stock solutions in DMSO (Fisher cat# BP-231-100). KRAS G12C 1-169, his-tagged protein, GDP-loaded was diluted to 2 μM or 0.5 μM in buffer (20 mM Hepes, 150 mM NaCl, 1 mM MgCl2). Compounds were tested for activity as follows:
Compounds were diluted to 50× final test concentration in DMSO in 96-well storage plates. Compound stock solutions were vortexed before use and observed carefully for any sign of precipitation. Dilutions were as follow: • For 100 μM final compound concentration, compounds were diluted to 5000 μM (5 μL 10 mM compound stock+5 μL DMSO and mixed well by pipetting. • For 30 μM final compound concentration, compounds were diluted to 1500 μM (3 μL 10 mM compound stock+17 μL DMSO) and mixed well by pipetting. • For 10 μM final compound concentration, compounds were diluted to 500 μM (2 μL 10 mM compound stock+38 μL DMSO) and mixed well by pipetting. 49 μL of the stock protein solution was added to each well of a 96-well PCR plate (Fisher cat#1423027). 1 μl of the diluted 50× compounds were added to appropriate wells in the PCR plate using 12-channel pipettor. Reactions were mixed carefully and thoroughly by pipetting up/down with a 200 μL multi-channel pipettor. The plate was sealed well with aluminum plate seal, and stored in drawer at room temperature for 10 minutes, 30 minutes, 2 hours or 24 hours. 5 μL of 2% formic acid (Fisher cat# A117) in de-ionized H2O was then added to each well followed by mixing with a pipette. The plate was then resealed with aluminum seal and stored on dry ice until analyzed as described below.
The above described assays were analyzed by mass spectrometry according to one of the following two procedures:
The MS instrument is set to positive polarity, 2 GHz resolution, and low mass (1700) mode and allowed to equilibrate for 30 minutes. The instrument is then calibrated, switched to acquisition mode and the appropriate method loaded.
After another 30 minute equilibration time, a blank batch (i.e., buffer) is run to ensure equipment is operating properly. The samples are thawed at 37° C. for 10 minutes, briefly centrifuged, and transfer to the bench top. Wells A1 and H12 are spiked with 1 μL 500 μM internal standard peptide, and the plates centrifuged at 2000×g for 5 minutes. The method is then run and masses of each individual well recorded.
The masses (for which integration data is desired) for each well are pasted into the platemap and exported from the analysis. Masses for the internal standards are exported as well. The data at 50 ppm is extracted for the +19 charge state, and identity of well A1 is assigned using the internal standard spike and integrated. Peak data is exported as a TOF list and the above steps are repeated individually, for the +20, 21, 22, 23, 24, and 25 charge states.
The masses and peak intensities of KRAS G12C protein species were measured using a Dionex RSLCnano system (Thermo Scientific) connected to a Q Exactive Plus mass spectrometer (Thermo Scientific).
[…] of sample was each loaded onto a Aeris™ 3.6 μm WIDEPORE C4 200 Å, LC Column 50×2.1 mm column maintained at 40° C. at a flow rate of 600 μL/min with 20% Solvent A (0.1% formic acid in H2O) and 80% Solvent B (0.1% formic acid in acetonitrile). The liquid chromatography conditions were 20% solvent B for 1 minute, 20% to 60% solvent B for 1.5 minutes, 60% to 90% solvent for 0.5 minute, 90% solvent B for 0.2 minute, 90% to 20% solvent B for 0.2 minute, and then equilibrated for 1.6 minute before the following sample injection. The flow rate was maintained at 600 μL/min throughout the sample analysis.
The mass spectrometer was operated in profile mode at a resolution of 17500, 5 microscans, using 50 msec max injection time and an AGC target of 1×10^6, and a full mass range from 800-1850 m/z was recorded. The HCD trapping gas was optimized for maximum sensitivity for intact proteins. […]
As to `C=CC(=O)N1CC(N2Cc3cc(F)c(-c4cc(O)ccc4Cl)cc3C2=O)C1` [Compound 21, 2-(1-acryloylazetidin-3-yl)-6-(2-chloro-5-hydroxyphenyl)-5-fluoroisoindolin-1-one], the Binding % result is “++ (++ indicates binding activity from 10 to 50%)”. The same measure, in the same setting: to `C=CC(=O)NCCN1Cc2ccc(-c3c(C)ccc4[nH]ncc34)cc2C1=O` [Compound 22, N-(2-(6-(5-methyl-1H-indazol-4-yl)-1-oxoisoindolin-2-yl)ethyl)acrylamide] belongs “+ (+ indicates binding activity up to 10%)”; to `C=CC(=O)N1CC(N2Cc3c(C(N)=O)cc(-c4cc(O)cc5ccccc45)cc3C2=O)C1` [Compound 23, 2-(1-acryloylazetidin-3-yl)-6-(3-hydroxynaphthalen-1-yl)-1-oxoisoindoline-4-carboxamide], “+++ (+++ indicates binding activity greater than 50%)”; to `C=CC(=O)N1CC(N2Cc3c(C#N)cc(-c4cc(O)cc5ccccc45)cc3C2=O)C1` [Compound 24, 2-(1-acryloylazetidin-3-yl)-6-(3-hydroxynaphthalen-1-yl)-1-oxoisoindoline-4-carbonitrile], “+++ (+++ indicates binding activity greater than 50%)”. Still for that read-out and setting: to `C=CC(=O)N1CC(N2C(=O)c3ccc(-c4cc(O)cc5ccccc45)cc3C2=O)C1` [Compound 25, 2-(1-acryloylazetidin-3-yl)-5-(3-hydroxynaphthalen-1-yl)isoindoline-1,3-dione] belongs “++ (++ indicates binding activity from 10 to 50%)”.

Staying with this assay, now noted: 2 hour incubation period, 10 μM compound (compounds 1-20).
In the case of `C=CC(=O)N1CC(N2Cc3cc(-c4cc(O)cc5ccccc45)ccc3C2=O)C1` [Compound 1, 2-(1-acryloylazetidin-3-yl)-5-(3-hydroxynaphthalen-1-yl)isoindolin-1-one], the Binding % entry is “++ (++ indicates binding activity from 10 to 50%)”. On the same count and under the same terms, the entry for `C=CC(=O)N1CC(N2Cc3ccc(-c4cc(O)cc5ccccc45)cc3C2=O)C1` [Compound 2, 2-(1-acryloylazetidin-3-yl)-6-(3-hydroxynaphthalen-1-yl)isoindolin-1-one] is “+++ (+++ indicates binding activity greater than 50%)”. On to `C=CC(=O)N1CC(N2Cc3ccc(-c4cc(O)cc5ccccc45)cc3CC2=O)C1` [Compound 3, 2-(1-acryloylazetidin-3-yl)-6-(3-hydroxynaphthalen-1-yl)-1,4-dihydroisoquinolin-3(2H)-one], for which the Binding % entry was “+++ (+++ indicates binding activity greater than 50%)”. In the case of `C=CC(=O)N1CCCC(N2Cc3ccc(-c4cc(O)cc5ccccc45)cc3C2=O)C1` (stereo not shown) [Compound 4, 2-(1-acryloylpiperidin-3-yl)-6-(3-hydroxynaphthalen-1-yl)isoindolin-1-one], the Binding % result is “+ (+ indicates binding activity up to 10%)”. On the same count and under the same terms, the entry for `C=CC(=O)N1CC(N2Cc3ccc(-c4c(C)ccc5[nH]ncc45)cc3C2=O)C1` [Compound 5, 2-(1-acryloylazetidin-3-yl)-6-(5-methyl-1H-indazol-4-yl)isoindolin-1-one] is “++ (++ indicates binding activity from 10 to 50%)”; for `C=CC(=O)N1CC(N2Cc3ccc(-c4c(O)cccc4F)cc3C2=O)C1` [Compound 6, 2-(1-acryloylazetidin-3-yl)-6-(2-fluoro-6-hydroxyphenyl)isoindolin-1-one] it is “+ (+ indicates binding activity up to 10%)”; for `C=CC(=O)N1CCC(N2Cc3ccc(-c4cc(O)cc5ccccc45)cc3C2=O)CC1` [Compound 7, 2-(1-acryloylpiperidin-4-yl)-6-(3-hydroxynaphthalen-1-yl)isoindolin-1-one] it is “+ (+ indicates binding activity up to 10%)”. Still for that read-out and setting: to `C=CC(=O)N1CC(N2Cc3ccc(-c4c(C)ccc5cn[nH]c45)cc3C2=O)C1` [Compound 8, 2-(1-acryloylazetidin-3-yl)-6-(6-methyl-1H-indazol-7-yl)isoindolin-1-one] belongs “+ (+ indicates binding activity up to 10%)”. The same measure, in the same setting: the entry for `C=CC(=O)N1CCC(N2Cc3ccc(-c4cc(O)cc5ccccc45)cc3C2=O)C1` (stereo not shown) [Compound 9, 2-(1-acryloylpyrrolidin-3-yl)-6-(3-hydroxynaphthalen-1-yl)isoindolin-1-one] is “++ (++ indicates binding activity from 10 to 50%)”; for `C=CC(=O)N1CC(N2Cc3ccc(-c4cc(O)ccc4Cl)cc3C2=O)C1` [Compound 10, 2-(1-acryloylazetidin-3-yl)-6-(2-chloro-5-hydroxyphenyl)isoindolin-1-one] it is “+++ (+++ indicates binding activity greater than 50%)”. For the compound `C=CC(=O)N1CC(N2Cc3ccc(-c4cc(O)ccc4C)cc3C2=O)C1` [Compound 11, 2-(1-acryloylazetidin-3-yl)-6-(5-hydroxy-2-methylphenyl)isoindolin-1-one], the Binding % result is “++ (++ indicates binding activity from 10 to 50%)”.

For the compound `C=CC(=O)N1CC(N2Cc3c(Cl)cc(-c4cc(O)cc5ccccc45)cc3C2=O)C1` [Compound 12, 2-(1-acryloylazetidin-3-yl)-4-chloro-6-(3-hydroxynaphthalen-1-yl)isoindolin-1-one], the Binding % entry is recorded as “+++ (+++ indicates binding activity greater than 50%)”. On the same count and under the same terms, to `C=CC(=O)N1CC(N2Cc3c(Cl)cc(-c4cc(O)ccc4Cl)cc3C2=O)C1` [Compound 13, 2-(1-acryloylazetidin-3-yl)-4-chloro-6-(2-chloro-5-hydroxyphenyl)isoindolin-1-one] belongs “++ (++ indicates binding activity from 10 to 50%)”; to `C=CC(=O)N1CC(N2Cc3c(C)cc(-c4cc(O)cc5ccccc45)cc3C2=O)C1` [Compound 14, 2-(1-acryloylazetidin-3-yl)-6-(3-hydroxynaphthalen-1-yl)-4-methylisoindolin-1-one], “+++ (+++ indicates binding activity greater than 50%)”. Same read-out and setting: to `C=CC(=O)N1CC(N2Cc3c(C)cc(-c4cc(O)ccc4Cl)cc3C2=O)C1` [Compound 15, 2-(1-acryloylazetidin-3-yl)-6-(2-chloro-5-hydroxyphenyl)-4-methylisoindolin-1-one] belongs “++ (++ indicates binding activity from 10 to 50%)”; to `C=CC(=O)N1CC(N2Cc3ccc(-c4c[nH]c5ccccc45)cc3C2=O)C1` [Compound 16, 2-(1-acryloylazetidin-3-yl)-6-(1H-indol-3-yl)isoindolin-1-one], “++ (++ indicates binding activity from 10 to 50%)”; to `C=CC(=O)N1CC(N2Cc3c(cc(-c4cc(O)ccc4Cl)cc3C(F)(F)F)C2=O)C1` [Compound 17, 2-(1-acryloylazetidin-3-yl)-6-(2-chloro-5-hydroxyphenyl)-4-(trifluoromethyl)isoindolin-1-one], “++ (++ indicates binding activity from 10 to 50%)”. Same read-out and setting: to `C=CC(=O)NCCN1Cc2ccc(-c3cc(O)cc4ccccc34)cc2C1=O` [Compound 18, N-(2-(6-(3-hydroxynaphthalen-1-yl)-1-oxoisoindolin-2-yl)ethyl)acrylamide] belongs “+ (+ indicates binding activity up to 10%)”; to `C=CC(=O)N1CC(N2Cc3cc(F)c(-c4cc(O)cc5ccccc45)cc3C2=O)C1` [Compound 19, 2-(1-acryloylazetidin-3-yl)-5-fluoro-6-(3-hydroxynaphthalen-1-yl)isoindolin-1-one], “+++ (+++ indicates binding activity greater than 50%)”. Consider `C=CC(=O)N1CC(N2Cc3ccc(Nc4ccccc4)cc3C2=O)C1` [Compound 20, 2-(1-acryloylazetidin-3-yl)-6-(phenylamino)isoindolin-1-one], for which the Binding % result is listed as “+ (+ indicates binding activity up to 10%)”.
